Patent US20160031907A1, “Substituted Benzene Compounds” (EPIZYME, INC., priority 2013, published 2016)

Test system: WSU-DLCL2 cell line
Experiment: Cell proliferation analysis (Cell Titer Glo, 6 days)
Assay type: cell-based
Conditions: Homo sapiens, WSUDLCL2, 144 h; WSU-DLCL2 cells, 6 days incubation, cell viability by ATP (Cell Titer Glo)
Source text: Cell Proliferation Analysis
WSU-DLCL2 suspension cells were purchased from DSMZ (German Collection of Microorganisms and Cell Cultures, Braunschweig, Germany). RPMI/Glutamax Medium, Penicillin-Streptomycin, Heat Inactivated Fetal Bovine Serum were purchased from Life Technologies, Grand Island, N.Y., USA. V-bottom polypropylene 384-well plates were purchased from Greiner Bio-One, Monroe, N.C., USA. Cell culture 384-well white opaque plates were purchased from Perkin Elmer, Waltham, Mass., USA. Cell-Titer Glo® was purchased from Promega Corporation, Madison, Wis., USA. SpectraMax M5 plate reader was purchased from Molecular Devices LLC, Sunnyvale, Calif., USA.
WSU-DLCL2 suspension cells were maintained in growth medium (RPMI 1640 supplemented with 10% v/v heat inactivated fetal bovine serum and cultured at 37° C. under 5% CO2. Under assay conditions, cells were incubated in Assay Medium (RPMI 1640 supplemented with 20% v/v heat inactivated fetal bovine serum and 100 units/mL penicillin-streptomycin) at 37° C. under 5% CO2.
For the assessment of the effect of compounds on the proliferation of the WSU-DLCL2 cell line, exponentially growing cells were plated in 384-well white opaque plates at a density of 1250 cell/ml in a final volume of 50 μl of assay medium. A compound source plate was prepared by performing triplicate nine-point 3-fold serial dilutions in DMSO, beginning at 10 mM (final top concentration of compound in the assay was 20 μM and the DMSO was 0.2%). A 100 nL aliquot from the compound stock plate was added to its respective well in the cell plate. The 100% inhibition control consisted of cells treated with 200 nM final concentration of staurosporine and the 0% inhibition control consisted of DMSO treated cells. After addition of compounds, assay plates were incubated for 6 days at 37° C., 5% CO2, relative humidity >90% for 6 days. Cell viability was measured by quantization of ATP present in the cell cultures, adding 35 μl of Cell Titer Glo® reagent to the cell plates. Luminescence was read in the SpectraMax M5. The concentration inhibiting cell viability by 50% was determined using a 4-parametric fit of the normalized dose response curves.

Row | Compound | IC50
1 | CCN(c1cc(Cl)cc(C(=O)NCc2c[nH]cn2)c1C)C1CCOCC1 [Cpd 30] | 44.1 µM
2 | CCN(c1cc(Cl)cc(C(=O)NCc2ccn(C)n2)c1C)C1CCOCC1 [Cpd 28] | > 50 µM
3 | CCN(c1cc(Cl)cc(C(=O)NCc2c(C)cc(C)n3ccnc23)c1C)[C@H]1CC[C@H](N(C)C)CC1 [Cpd 1] | > 25 µM
4 | CCN(c1cc(Cl)cc(C(=O)NCc2nccn2C)c1C)C1CCOCC1 [Cpd 23] | > 50 µM
5 | CCN(c1cc(Cl)cc(C(=O)NCc2cn3ccsc3n2)c1C)C1CCOCC1 [Cpd 26] | > 50 µM
6 | CCN(c1cc(Cl)cc(C(=O)NCc2cc(C)on2)c1C)C1CCOCC1 [Cpd 29] | > 50 µM
7 | CCN(c1cc(Cl)cc(C(=O)NCc2cccn3ccnc23)c1C)[C@H]1CC[C@H](N(C)C)CC1 [Cpd 3] | > 25 µM
8 | CCN(c1cc(Cl)cc(C(=O)NCCc2ncc[nH]2)c1C)[C@H]1CC[C@H](N(C)C)CC1 [Cpd 10] | > 50 µM
9 | CCN(c1cc(Cl)cc(C(=O)NCc2cc(C)nn2C)c1C)C1CCOCC1 [Cpd 31] | > 50 µM
10 | CCN(c1cc(Cl)cc(C(=O)NCc2c(C)ccn3ccnc23)c1C)[C@H]1CC[C@H](N(C)C)CC1 [Cpd 2] | > 25 µM
11 | CCN(c1cc(Cl)cc(C(=O)NCc2cn(C)cn2)c1C)C1CCOCC1 [Cpd 25] | > 50 µM
12 | CCN(c1cc(Cl)cc(C(=O)NCc2cncn2C)c1C)C1CCOCC1 [Cpd 22] | > 50 µM
13 | CCN(c1cc(Cl)cc(C(=O)NCc2cnn(C)c2C)c1C)C1CCOCC1 [Cpd 27] | > 50 µM
14 | CCN(c1cc(Cl)cc(C(=O)NCc2nccs2)c1C)C1CCOCC1 [Cpd 24] | > 50 µM
